# Measured values as given in patent publication US20250381198A1 (Melt Pharmaceuticals, Inc., priority 2024, published 2025).
# Tests used:
# [1] = Phase 1 crossover relative bioavailability study: plasma pharmacokinetics of midazolam, 1-hydroxymidazolam, ketamine and norketamine
# Experimental: PK analysis was performed using noncompartmental methods in Phoenix WinNonlin® (Version 8.1, Certara, L.P.) in conjunction with the internet-accessible implementation of the Pharsight® Knowledgebase Server™ (PKSO; Version 4.0.4, Certara, L.P). PKSO provides protected and structured storage, audit trails, and version control for study data, analyses, and related files, supporting 21 CFR Part 11 compliance. The analysis was performed in accordance with the Statistical Analysis Plan (Version 1.0, 5 Jan. 2021).
# During the PK analysis, concentrations below the limit of quantitation (BLQ) up to the time of the first quantifiable concentration were treated as zero. Embedded (values between 2 quantifiable concentrations) and terminal BLQ concentrations were treated as “missing”. Calculation of the PK characteristics were based on actual elapsed times [h] (relative to time of dose).
# All PK analyses were performed on the data from the PK Analysis Population. […] The ANOVA model included factors for sequence, subject within sequence, treatment, and period.
# healthy adult subjects = assay: Phase 1 pharmacodynamics: sedation by Ramsay sedation scale (RSS); type: in vivo, human; conditions: for Subjects with RSS score of 2: 5 minutes after administration
# Experimental: Pharmacodynamic parameters included sedation, defined as time to onset of sedation and sedation level, assessed using the Ramsay sedation scale (RSS), and cardiodynamics assessed by QTcF, heart rate, and PR and QRS intervals, and T-wave morphology and U-wave presence, extracted from ECGs collected via Holter monitor from predose through 24 hours postdose.
# All pharmacodynamic analyses were performed on data from the Safety Population. The RSS scores were summarized by treatment and by timepoint. Time to onset of sedation was summarized by treatment and presented graphically.
# [2] = system: subjects undergoing cataract extraction with lens replacement (CELR); assay: Phase 2: subjects achieving analgesia response (NPRS < 4); type: in vivo, human; conditions: Full Analysis Set; for Subjects achieving analgesia response (observed): Yes: NPRS < 4 at the available four intraoperative timepoints
# Experimental: The number of subjects achieving analgesia response (observed) in the full analysis set was determined. Success in analgesia response was defined as NPRS<4 at the available at the available four intraoperative timepoints and a failure otherwise (e.g., any interoperative pain rescue was assumed to be a failure. Results are provided in TABLE 25. The number of subjects completing the surgery is provided in TABLE 26, and the number of subjects completing the surgery without interruption is provided in TABLE 27. For this measure, subjects completing the surgery without interruption (other than rescue medication) due to pain or anxiety were considered successes. The number of subjects requiring rescue sedative medication and those requiring analgesic medication are provided in TABLES 28 and 29, respectively. For all TABLES 25-29, p-Values between pairs of treatments were calculated and are provided.
# [3] = system: subjects undergoing cataract extraction with lens replacement (CELR); assay: Phase 2: subjects receiving opioid concomitant medication postoperatively; type: in vivo, human; conditions: Full Analysis Set; percent of subjects
# [4] = system: subjects undergoing cataract extraction with lens replacement (CELR); assay: Phase 3: Ramsay sedation scale (RSS) scores; type: in vivo, human; conditions: ITT analysis set
# Source text: The RSS scores are summarized for: the baseline, just prior to the start of surgery, the minimum and maximum preoperative score, the minimum and maximum intraoperative score, the minimum and maximum postoperative score, and the maximum overall score.
# [5] = Treatment C: midazolam IV 3.5 mg, fasted
# [6] = midazolam 3.5 mg IV, ketamine 18 mg IV
# [7] = Just prior to the start of surgery
# [8] = Treatment D: ketamine IV 18 mg, fasted
# [9] = 5-minute postdose timepoint, ketamine 18 mg IV
smiles,measurement,setting,value
"Cc1ncc2n1-c1ccc(Cl)cc1C(c1ccccc1F)=NC2 [Midazolam, 8-chloro-6-(2-fluorophenyl)-1-methyl-4H-imidazo[1,5-a][1,4]benzodiazepine]","Midazolam AUCExtrap, mean",[1]; [5],5.58%
same,"Midazolam Clast, mean",[1]; [5],0.963 ng/mL
same,Subjects with RSS scores of 3,"healthy adult subjects; 5-minute postdose timepoint, midazolam 3.5 mg IV",8.3%
same,Subjects with RSS score of 2,healthy adult subjects; [6],91.7%
same,Highest proportion of subjects with RSS scores >2 postdose,healthy adult subjects; [6],~54%
same,Subjects achieving analgesia response (observed): No,[2],48 (59.3) n (%)
same,Subjects achieving analgesia response (observed): Yes,[2],33 (40.7) n (%)
same,"Received Postoperative Opioid on Day 2-8: No, %",[3],(100.0) %
same,"Received Postoperative Opioid on Day 2-8: Yes, %",[3],(0.0) %
same,"Received Postoperative Opioid on Day 2: No, %",[3],(100.0) %
same,"Received Postoperative Opioid on Day 2: Yes, %",[3],(0.0) %
same,"Ramsay sedation scale score 1, number of subjects",[4]; Baseline,89
same,"Ramsay sedation scale score 1, percent of subjects (in parentheses)",[4]; Baseline,(100.0)
same,"Ramsay sedation scale score 2-3, number of subjects",[4]; Baseline,0
same,"Ramsay sedation scale score 4, number of subjects",[4]; Baseline,0
same,"Ramsay sedation scale score 5+, number of subjects",[4]; Baseline,0
same,"Ramsay sedation scale: Prior rescue sedation medication given, number of subjects",[4]; Baseline,0
same,"Ramsay sedation scale score 1, number of subjects",[4]; [7],7
same,"Ramsay sedation scale score 1, percent of subjects (in parentheses)",[4]; [7],(7.9)
same,"Ramsay sedation scale score 2-3, number of subjects",[4]; [7],65
same,"Ramsay sedation scale score 2-3, percent of subjects (in parentheses)",[4]; [7],(73.0)
same,"Ramsay sedation scale score 4, number of subjects",[4]; [7],0
same,"Ramsay sedation scale score 5+, number of subjects",[4]; [7],0
same,"Ramsay sedation scale: Prior rescue sedation medication given, number of subjects",[4]; [7],17
same,"Ramsay sedation scale: Prior rescue sedation medication given, percent of subjects (in parentheses)",[4]; [7],(19.1)
same,"Ramsay sedation scale score 1, number of subjects",[4]; Maximum intraoperative score,4
same,"Ramsay sedation scale score 1, percent of subjects (in parentheses)",[4]; Maximum intraoperative score,(4.5)
same,"Ramsay sedation scale score 2-3, number of subjects",[4]; Maximum intraoperative score,60
same,"Ramsay sedation scale score 2-3, percent of subjects (in parentheses)",[4]; Maximum intraoperative score,(67.4)
same,"Ramsay sedation scale score 4, number of subjects",[4]; Maximum intraoperative score,0
same,"Ramsay sedation scale score 5+, number of subjects",[4]; Maximum intraoperative score,0
same,"Ramsay sedation scale: Prior rescue sedation medication given, number of subjects",[4]; Maximum intraoperative score,25
same,"Ramsay sedation scale: Prior rescue sedation medication given, percent of subjects (in parentheses)",[4]; Maximum intraoperative score,(28.1)
same,"Ramsay sedation scale score 1, number of subjects",[4]; Maximum postoperative score,45
same,"Ramsay sedation scale score 1, percent of subjects (in parentheses)",[4]; Maximum postoperative score,(50.6)
same,"Ramsay sedation scale score 2-3, number of subjects",[4]; Maximum postoperative score,14
same,"Ramsay sedation scale score 2-3, percent of subjects (in parentheses)",[4]; Maximum postoperative score,(15.7)
same,"Ramsay sedation scale score 4, number of subjects",[4]; Maximum postoperative score,0
same,"Ramsay sedation scale score 5+, number of subjects",[4]; Maximum postoperative score,0
same,"Ramsay sedation scale: Prior rescue sedation medication given, number of subjects",[4]; Maximum postoperative score,29
same,"Ramsay sedation scale: Prior rescue sedation medication given, percent of subjects (in parentheses)",[4]; Maximum postoperative score,(32.6)
same,"Ramsay sedation scale score 1, number of subjects",[4]; Maximum preoperative score,22
same,"Ramsay sedation scale score 1, percent of subjects (in parentheses)",[4]; Maximum preoperative score,(24.7)
same,"Ramsay sedation scale score 2-3, number of subjects",[4]; Maximum preoperative score,67
same,"Ramsay sedation scale score 2-3, percent of subjects (in parentheses)",[4]; Maximum preoperative score,(75.3)
same,"Ramsay sedation scale score 4, number of subjects",[4]; Maximum preoperative score,0
same,"Ramsay sedation scale score 5+, number of subjects",[4]; Maximum preoperative score,0
same,"Ramsay sedation scale: Prior rescue sedation medication given, number of subjects",[4]; Maximum preoperative score,0
same,"Ramsay sedation scale score 1, number of subjects",[4]; Maximum score overall,22
same,"Ramsay sedation scale score 1, percent of subjects (in parentheses)",[4]; Maximum score overall,(24.7)
same,"Ramsay sedation scale score 2-3, number of subjects",[4]; Maximum score overall,67
same,"Ramsay sedation scale score 2-3, percent of subjects (in parentheses)",[4]; Maximum score overall,(75.3)
same,"Ramsay sedation scale score 4, number of subjects",[4]; Maximum score overall,0
same,"Ramsay sedation scale score 5+, number of subjects",[4]; Maximum score overall,0
same,"Ramsay sedation scale: Prior rescue sedation medication given, number of subjects",[4]; Maximum score overall,0
same,"Ramsay sedation scale score 1, number of subjects",[4]; Minimum intraoperative score,4
same,"Ramsay sedation scale score 1, percent of subjects (in parentheses)",[4]; Minimum intraoperative score,(4.5)
same,"Ramsay sedation scale score 2-3, number of subjects",[4]; Minimum intraoperative score,60
same,"Ramsay sedation scale score 2-3, percent of subjects (in parentheses)",[4]; Minimum intraoperative score,(67.4)
same,"Ramsay sedation scale score 4, number of subjects",[4]; Minimum intraoperative score,0
same,"Ramsay sedation scale score 5+, number of subjects",[4]; Minimum intraoperative score,0
same,"Ramsay sedation scale: Prior rescue sedation medication given, number of subjects",[4]; Minimum intraoperative score,25
same,"Ramsay sedation scale: Prior rescue sedation medication given, percent of subjects (in parentheses)",[4]; Minimum intraoperative score,(28.1)
same,"Ramsay sedation scale score 1, number of subjects",[4]; Minimum postoperative score,49
same,"Ramsay sedation scale score 1, percent of subjects (in parentheses)",[4]; Minimum postoperative score,(55.1)
same,"Ramsay sedation scale score 2-3, number of subjects",[4]; Minimum postoperative score,10
same,"Ramsay sedation scale score 2-3, percent of subjects (in parentheses)",[4]; Minimum postoperative score,(11.2)
same,"Ramsay sedation scale score 4, number of subjects",[4]; Minimum postoperative score,0
same,"Ramsay sedation scale score 5+, number of subjects",[4]; Minimum postoperative score,0
same,"Ramsay sedation scale: Prior rescue sedation medication given, number of subjects",[4]; Minimum postoperative score,29
same,"Ramsay sedation scale: Prior rescue sedation medication given, percent of subjects (in parentheses)",[4]; Minimum postoperative score,(32.6)
"CNC1(c2ccccc2Cl)CCCCC1=O (centres unmarked) [Ketamine, 2-(2-chlorophenyl)-2-(methylamino)cyclohexanone]","Ketamine AUCExtrap, mean",[1]; [8],9.64%
same,"Ketamine Clast, mean",[1]; [8],1.99 ng/mL
same,"Ketamine Tlast, mean",[1]; [8],23.7 h
same,"Ketamine Vz, mean",[1]; [8],867 L
same,clearance,"[1]; human, plasma, iv, 18 mg",998 mL/min
same,Subjects with RSS score of 1,healthy adult subjects; [9],4.0%
same,Subjects with RSS score of 5,healthy adult subjects; [9],4.0%
same,Subjects with RSS score of 2,healthy adult subjects; [6],92.0%
same,Highest proportion of subjects with RSS scores >2 postdose,healthy adult subjects; [6],~8%
same,Subjects achieving analgesia response (observed): No,[2],40 (50.6) n (%)
same,Subjects achieving analgesia response (observed): Yes,[2],39 (49.4) n (%)
same,"Received Postoperative Opioid on Day 2-8: No, %",[3],(100.0) %
same,"Received Postoperative Opioid on Day 2-8: Yes, %",[3],(0.0) %
same,"Received Postoperative Opioid on Day 2: No, %",[3],(100.0) %
same,"Received Postoperative Opioid on Day 2: Yes, %",[3],(0.0) %
